Measurements taken from patent US20050074879A1, “Antisense oligonucleotide modulation of STAT3 expression” (priority 2000, published 2005).
Oligonucleotides are written 5' to 3', each unit as a sugar letter and its base; * is a phosphorothioate linkage, no mark a phosphodiester; rarer units and linkages stand in square brackets, end groups in braces. Plain capitals give the bases only. e = 2'-O-(2-methoxyethyl) (MOE); [5mC] = 5-methylcytosine; d = 2'-deoxy (DNA)

Tests used:
Format in all cases: cell-based
Human STAT3 mRNA [1] = experiment: Human STAT3 mRNA dose response in T-24 cells, real-time PCR with PPS 2033 (Table 19); conditions: 16 hours, − decrease, + increase relative to untreated control
In short: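 T-24 cells got oligonucleotide at 18.75, 37.5, 75 or 150 nM with LIPOFECTIN (3 ug/mL per 100 nM oligo) for 16 h. STAT3 mRNA was quantified by real-time RT-PCR with primer-probe set PPS 2033, normalized to RiboGreen total RNA, and expressed as change versus untreated cells.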

Human STAT3 mRNA [2] = experiment: Human STAT3 mRNA dose response in A549 cells, real-time PCR with PPS 199 (Table 20); conditions: 16 hours, LIPOFECTIN, − decrease, + increase relative to untreated control cells
Description: An additional dose-response experiment was preformed in A549 cells. A549 cells were treated with 18.75, 37.5, 75, or 150 nM of oligonucleotide mixed with 3 ug/mL LIPOFECTIN per 100 nM oligonucleotide as described by other examples herein. Control oligonucleotides used were ISIS 129686 (SEQ ID NO: 394) and ISIS 129690 (SEQ ID NO: 393). Untreated cells served as controls. Following 16 hours of treatment, RNA was prepared from cells for subsequent real-time PCR analysis.
Human STAT3 mRNA expression levels were quantitated by real-time PCR using primer probe set PPS 199 and gene target quantities were normalized using Ribogreen as described in other examples herein. A “−” or “+” designation in the dose response results indicates a decrease or increase of STAT 3 mRNA expression, respectively, relative to untreated control cells.

Human STAT3 mRNA [3] = experiment: Human STAT3 mRNA dose response in T-24 cells, real-time PCR with PPS 199 (Table 18); conditions: 16 hours, − decrease, + increase relative to untreated control
In short: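 Bladder carcinoma T-24 cells transfected with oligonucleotide at 18.75, 37.5, 75 or 150 nM plus 3 ug/mL LIPOFECTIN per 100 nM, 16 h. STAT3 mRNA quantified by real-time PCR (PPS 199), normalized with Ribogreen; change given relative to untreated cells.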

Substance | Percent change of STAT3 expression using PPS 2033 (Human STAT3 mRNA [1]; 18.75 nM oligonucleotide) | Percent change of STAT3 expression using PPS 2033 (Human STAT3 mRNA [1]; 37.5 nM oligonucleotide) | Percent change of STAT3 expression using PPS 2033 (Human STAT3 mRNA [1]; 75 nM oligonucleotide) | Percent change of STAT3 expression using PPS 2033 (Human STAT3 mRNA [1]; 150 nM oligonucleotide) | Percent change of STAT3 expression in A549 cells using PPS 199 (Human STAT3 mRNA [2]; 18.75 nM oligonucleotide) | Percent change of STAT3 expression in A549 cells using PPS 199 (Human STAT3 mRNA [2]; 37.5 nM oligonucleotide) | Percent change of STAT3 expression in A549 cells using PPS 199 (Human STAT3 mRNA [2]; 75 nM oligonucleotide) | Percent change of STAT3 expression in A549 cells using PPS 199 (Human STAT3 mRNA [2]; 150 nM oligonucleotide) | Percent change of STAT3 expression using PPS 199 (Human STAT3 mRNA [3]; 18.75 nM oligonucleotide) | Percent change of STAT3 expression using PPS 199 (Human STAT3 mRNA [3]; 37.5 nM oligonucleotide) | Percent change of STAT3 expression using PPS 199 (Human STAT3 mRNA [3]; 75 nM oligonucleotide) | Percent change of STAT3 expression using PPS 199 (Human STAT3 mRNA [3]; 150 nM oligonucleotide)
337332 (antisense eG*eA*eA*eG*e[5mC]*d[5mC]*d[5mC]*dT*dT*dG*d[5mC]*d[5mC]*dA*dG*d[5mC]*e[5mC]*eA*eT*eG*eT) [compound 337332] | −66% | −79% | −85% | −91% | −31% | −61% | −77% | −87% | −63% | −79% | −87% | −92%
337333 (antisense eA*eA*eG*eG*eA*dG*dA*dA*dG*d[5mC]*d[5mC]*d[5mC]*dT*dT*dG*e[5mC]*e[5mC]*eA*eG*e[5mC]) [compound 337333] | −46% | −70% | −82% | −90% | −8% | −39% | −59% | −75% | −48% | −73% | −82% | −88%
337348 (antisense eT*e[5mC]*e[5mC]*eG*eA*dA*dT*dG*d[5mC]*d[5mC]*dT*d[5mC]*d[5mC]*dT*d[5mC]*e[5mC]*eT*eT*eG*eG) [compound 337348] | −53% | −76% | −83% | −86% | −26% | −43% | −55% | −77% | −61% | −77% | −82% | −86%
